Residues, ends and D or L forms follow the SMILES beside them.

The values that follow come from ChEMBL document CHEMBL3244295, “A ureido group containing analogue of oxytocin comprising eight amino acid residues” (J Med Chem, 1978).

Experiment [1] can be described thus: Uterotonic activity in virgin rat uterus. Type of experiment: functional.
Experiment [2] can be described thus: Uterotonic activity in virgin rat uterus relative to oxytocin. Type of experiment: functional.
Experiment [3] deals with T1, Oxytocin-like receptor (Gallus gallus, UniProt Q5D7U5).
T1 sequence (Q5D7U5 whole entry): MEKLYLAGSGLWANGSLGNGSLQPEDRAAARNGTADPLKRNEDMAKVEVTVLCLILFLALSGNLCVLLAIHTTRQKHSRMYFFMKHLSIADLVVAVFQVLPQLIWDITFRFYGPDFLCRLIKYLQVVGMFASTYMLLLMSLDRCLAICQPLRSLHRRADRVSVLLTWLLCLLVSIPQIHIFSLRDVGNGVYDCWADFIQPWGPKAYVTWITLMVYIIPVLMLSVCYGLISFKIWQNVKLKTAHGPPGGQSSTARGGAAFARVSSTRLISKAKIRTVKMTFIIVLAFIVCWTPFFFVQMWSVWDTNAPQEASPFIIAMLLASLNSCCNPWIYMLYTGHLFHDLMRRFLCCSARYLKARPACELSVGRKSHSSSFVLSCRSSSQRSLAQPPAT
The experiment is described as follows: Antagonist activity at oxytocin receptor in conscious chicken assessed as inhibition of oxytocin-induced vaspdepressor response. The conditions noted are these: read-out: pA2 (converted).

Experiment [4] deals with Rattus norvegicus. Briefly: Antidiuretic activity in anesthetized rat assessed per mg. The class given is functional, Urine.

Take `[H][C@@]1([C@@H](C)CC)NC(=O)[C@H](Cc2ccc(O)cc2)NC(=O)NCCCC[C@@H](C(=O)N2CCC[C@H]2C(=O)N[C@@H](CC(C)C)C(=O)NCC(N)=O)NC(=O)[C@H](CC(N)=O)NC(=O)[C@H](CCC(N)=O)NC1=O` (HELM PEPTIDE1{Y.I.Q.N.K.P.L.G.[am]}|CHEM1{[O=C([*:1])[*:2]]}$PEPTIDE1,CHEM1,1:R1-1:R1|PEPTIDE1,CHEM1,5:R3-1:R2$$$V2.0): the Activity in experiment [1] is on record as 3.9 U/mg; in experiment [2], 0.8%; in experiment [4], <0.05 U. Moreover, the Kb in experiment [3] is 53.7 nM.
Turning to `CC[C@H](C)[C@@H]1NC(=O)[C@H](Cc2ccc(O)cc2)NC(=O)[C@@H](N)C(C)(C)SSC[C@@H](C(=O)N2CCC[C@H]2C(=O)N[C@@H](CC(C)C)C(=O)NCC(N)=O)NC(=O)[C@H](CC(N)=O)NC(=O)[C@H](CCC(N)=O)NC1=O`, in experiment [3], the Kb was 31.6 nM.
